ChEMBL document CHEMBL3507680, “University of Dundee, Gates Library screen for HepG2 cell viability”

Experiment: Human HepG2 cell viability assay in 384 well format
Format: toxicity, cell-based
Parameters: dose 125 nL, time 70.5 hour; concentration not given beside the values
Conditions: HepG2 cells, read-out: Inhibition

| Compound | cytotoxicity at 70.5 h [%] |
| --- | --- |
| Cc1ccc2c(c1)c(C)cc(=O)n2CCC(=O)O | -6.14 |
| c1cc(CN2CC[C@H]3C[C@H](c4nc(C5CC5)cs4)O[C@@H]3C2)ccn1 | -7.31 |
| O=C(c1ccoc1)N1CCC2(C1)CN(c1ncc(F)cn1)C2 | -0.91 |
| O=C(c1ccoc1)N1CCC2(C1)CN(c1ncccn1)C2 | 0.524 |
| CN(C)Cc1nnc2n1CCN(Cc1cccnc1)C2 | -2.36 |
| CCOCC(=O)NCC1Cn2nnc(-c3cccc(F)c3)c2CO1 (stereo not given) | -4.09 |
| COc1ccc(CN2C[C@@H]3CN(C(=O)c4ccsc4)C[C@@H]3C2=O)cc1 | -4.99 |
| Cc1cccc(CN2C[C@@H]3CN(C(=O)c4ccco4)C[C@@H]3C2=O)c1 | -1.41 |
| O=C(O)c1ccc2c(c1)C1(CCCCC1)CN2C(=O)c1ccnnc1 | -4.43 |
| CC(=O)N1CCOC2(CCCN(Cc3ccc(Cl)c(C(F)(F)F)c3)C2)C1 (stereo not given) | -1.77 |
| Cn1cc(CN2CC3(CCN(Cc4ccsc4)C3)C2)cn1 | 24.7 |
| O=C(O)CN1CCC2(CCc3ccccc32)CC1 | 13.9 |
| O=C(O)c1ccc2c(c1)C1(CCCCC1)CN2C(=O)c1cccc(F)c1 | 8.94 |
| CC(=O)N1[C@H](Cn2cncn2)C[C@@H]2CN(Cc3nccs3)CC[C@@H]21 | 14.9 |
| O=C(c1cccs1)N1CC(C(=O)N2CCCC2)C2(CCOCC2)C1 (stereo not given) | 0.22 |
| O=C(Nc1ccccc1)C1CN(C(=O)c2cccs2)CC12CCOCC2 (stereo not given) | -0.505 |
| CC(C)NC(=O)C1CN(C(=O)c2cccs2)CC12CCOCC2 (stereo not given) | -1.8 |
| COCCN1CCO[C@H]2[C@H](OCc3cccc(C)n3)CC[C@@H]21 | -2.63 |
| Cc1ccc(CN2CC[C@H]3OCC[C@@H](C(=O)NCC4CC4)[C@@H]3C2)o1 | -5.45 |
| CC(C)CN1CCC2(CC(C(=O)NCc3cccnc3)=NO2)C1 (stereo not given) | -5.8 |
| COC[C@]12COC[C@H]1CN(Cc1cccnc1OC)C2 | -19 |
| Cc1nc(N2CCCC2)nc2c1CCN(C(=O)CC1CC1)CC2 | -8.4 |
| COC[C@H]1CCC[C@]12CN(C(=O)NCc1ccccc1)CCO2 | -16.8 |
| O=C(NCC1CC1)C1CN(C(=O)c2cccc(Cl)c2)CC12CCOCC2 (stereo not given) | 38.6 |
| CCC1=N[C@@]2(CC[C@@H]3CN(S(=O)(=O)CC(C)C)C[C@@H]32)C(=O)N1C | -1.14 |
| Cc1csc([C@@H]2C[C@@H]3CCN(C(=O)c4ccnnc4)C[C@H]3O2)n1 | -3.66 |
| Cn1ccnc1CN1CCC2(CC1)CN(CC1CC1)C(=O)CO2 | 12.3 |

| Compound | cytotoxicity at 70.5 h [%] |
| --- | --- |
| CC(C)N(C)Cc1nnc2n1CCCN(C(=O)c1ccco1)C2 | -6.16 |
| O=C(C1CC=CC1)N1C[C@@H]2[C@@H](C1)OCC(=O)N2Cc1cccnc1 | 0.567 |
| Cc1ccoc1C(=O)N1CC[C@H]2OCC[C@@]2(COCc2ccncc2)C1 | -5.41 |
| O=C(NCC1CC1)C1CN(C(=O)c2cccnc2)CC12CCOCC2 (stereo not given) | -7.11 |
| COCC1CN(C(=O)C2=CCCCC2)Cc2cnn(CC3CC3)c21 (stereo not given) | -2.03 |
| CS(=O)(=O)NC[C@]12COC[C@H]1CN(C(=O)c1ccccc1)C2 | -3.75 |
| CS(=O)(=O)NC[C@]12COC[C@H]1CN(C(=O)Cc1ccccc1F)C2 | -1.03 |
| Cc1csc([C@@H]2C[C@@H]3CCN(C(=O)c4cc(C)on4)C[C@H]3O2)n1 | -1.08 |
| CC(C)NC(=O)N1CCN(S(=O)(=O)C2CC2)CC2(CNC(=O)C2)C1 (stereo not given) | 1.9 |
| Cn1nnc2c1C(COCC1CC1)CN(C(=O)Cc1ccsc1)C2 (stereo not given) | -0.74 |
| CC(C)NC(=O)N1CCN(S(=O)(=O)C2CC2)CC2(CC(=O)N(C)C2)C1 (stereo not given) | 0.827 |
| O=C1CCC2(CCCN(c3ncc(F)cn3)CC2)N1CC1CC1 (stereo not given) | -1.42 |
| COCC1CC2(CCN(C(=O)c3occc3C)CC2)CO1 (stereo not given) | -6.11 |
| O=C(c1ccsc1)N1CC(C(=O)N2CCOCC2)C2(CCOCC2)C1 (stereo not given) | -1.97 |
| O=C(CCc1ccccc1)N1CCn2cc(CN3CCCC3)nc2C1 | -11.7 |
| Cc1cc(C(=O)N2C[C@@H]3COC[C@]3(COCc3cccnc3)C2)no1 | -12 |
| COc1ccc2c(c1)C1(CCN(Cc3ccoc3)CC1)N(C)CC2 | -5.64 |
| Cn1nc(C(=O)NN2CCOCC2)c(Cl)c1C(F)(F)F | -3.83 |
| CC(C(=O)NN1CCOCC1)n1nc(C(F)(F)F)c(Cl)c1C1CC1 (stereo not given) | 6.2 |
| N#Cc1cc(C#N)c(SCC(=O)Nc2ccc(F)cc2)nc1N | 5.41 |
| CCC(=O)c1ccc(Br)cc1NN1c2cc(Br)ccc2C(=O)C1(C)OC (stereo not given) | 13.3 |
| CCC1=NN2C(=N)/C(=C/c3cccc(Cl)c3)C(=O)N=C2S1 | -5.39 |
| CN(C)c1nc2n(c(=O)n1)CCN2C(=O)Nc1cccc(Cl)c1 | -9.23 |
| CCOC(=O)Cn1cnc2nc3n(c2c1=O)CCC3 | -2.23 |
| OC(CN1CCOCC1)c1ccc(Br)cc1 (stereo not given) | -4.1 |
| CCc1oc2ccc(NS(C)(=O)=O)cc2c1C(=O)OC | 0.398 |
| CCS(=O)(=O)Nc1ccc2oc(C)c(C(=O)OC)c2c1 | -15 |

| Compound | cytotoxicity at 70.5 h [%] |
| --- | --- |
| CC/N=c1\c(NC(=O)C(C)(C)C)c(O)oc2ccccc12 | 22.9 |
| CCOC(=O)c1sc(NC(=O)COC)c(C#N)c1C | 28.6 |
| COCC(=O)NC[C@H]1CC[C@H](c2ccnc3ncnn32)CC1 | -8.99 |
| Cc1ccccc1NC(=O)c1cncc(C2CCNCC2)n1 | -4.64 |
| COCC1CN(Cc2sccc2C)Cc2nnn(CC3CC3)c21 (stereo not given) | -4.06 |
| CN(C)C(=O)CO[C@@H]1CN(Cc2ccccc2F)[C@@H]2CCCO[C@@H]21 | -6.14 |
| CC(=O)N1CCCC2(CN(Cc3ccc(F)cc3)CCO2)C1 (stereo not given) | 2.34 |
| Cc1ccc2c(c1)CCC21CCN(C(=O)CN(C)C)CC1 | -1.12 |
| Cc1ccc(CNCC2Cn3nnc(-c4cccc(F)c4)c3CO2)o1 (stereo not given) | -2 |
| c1csc(CN2CCO[C@H]3[C@H](OCC4CCCC4)CC[C@@H]32)n1 | -1.77 |
| COCCN1CCC2(CCN(Cc3cccs3)CC2)C1=O | 16.2 |
| O=C([C@@H]1COC[C@H]2CN(C3CCCC3)C[C@H]21)N1CCCCO1 | 11.7 |
| CC(=O)N1[C@H](Cn2cncn2)C[C@@H]2CN(CC3CC3)CC[C@@H]21 | -1.99 |
| CCN1CCC2(CCN(Cc3nccs3)CC2)C1=O | 0.565 |
| O=C([C@@H]1COC[C@H]2CN(C3CCCC3)C[C@H]21)N1CCCO1 | -1.63 |
| CC(=O)N1CCC2(CCN(Cc3cccc(F)c3)CC2)CC1 | -2.12 |
| CCC(=O)N1CCC2(CCN(Cc3cccc(F)c3)CC2)CC1 | -1.29 |
| COCCNC(=O)[C@H]1CC[C@@H]2[C@@H](CCN2c2ncc(F)cn2)O1 | -1.33 |
| O=C(c1ccco1)N1CCCC2(CN(Cc3ccc(F)cc3)CCO2)C1 (stereo not given) | -1.46 |
| Cc1ccc(CN2CC[C@H]3OCC[C@@H](C(=O)NCC4CC4)[C@@H]3C2)s1 | -6.5 |
| CCS(=O)(=O)N1CCOC2(CCCN(c3ccccn3)C2)C1 (stereo not given) | -2.6 |
| CNC(=O)c1cc2c(nc1NCC1CC1)CCN(c1ccncn1)CC2 | -24.6 |
| CCS(=O)(=O)N1C[C@H]2CCC[C@@]2(COc2ccccn2)C1 | -21.9 |
| O=C(c1cnccn1)N1CCOCC2(CCN(C3CCOCC3)C2)C1 (stereo not given) | -15.5 |
| COc1ccccc1CN1CC[C@H]2C[C@@H](C(=O)N3CCCC3)O[C@H]2C1 | -7.49 |
| O=C(c1ccccn1)N1CCn2cnc(COCC3CC3)c2C1 | -1.29 |
| O=C([C@H]1CCCO1)N1CC[C@H](O)[C@@H]1Cc1ccncc1 | 1.55 |

| Compound | cytotoxicity at 70.5 h [%] |
| --- | --- |
| Cc1nc(CN2CC3(CCN(c4ncc(F)cn4)C3)CC2=O)cs1 (stereo not given) | -0.115 |
| O=C(NC1COC2(CCN(Cc3ccccn3)CC2)C1)c1ccccn1 (stereo not given) | 3.59 |
| O=C(c1cccnc1)N1CCCC2(CCN(c3ccsc3)C2=O)C1 (stereo not given) | 13.9 |
| CCS(=O)(=O)N1CCC2(CC1)CC(Oc1ccccn1)CO2 (stereo not given) | -18.2 |
| Cc1noc([C@@H]2C[C@H]3CN(Cc4cc(C)on4)C[C@H]3O2)n1 | -4.39 |
| c1cncc(COCc2nnc3n2CCN(Cc2cccs2)C3)c1 | 12.3 |
| Cc1nc(CN2CCCC3(CCN(c4cccnc4)C3=O)C2)cs1 (stereo not given) | 14.2 |
| O=C1N(c2cccnc2)CCC12CCCN(Cc1ccoc1)C2 (stereo not given) | -4.21 |
| Cn1ccnc1CN1CCC2(CC1)CCN(Cc1ccoc1)C2 | -2.31 |
| CC(C)CN1CCn2c(COCc3cccnc3)nnc2C1 | -4.01 |
| c1csc(CN2CC3(CCN(Cc4ccsc4)C3)C2)n1 | 8.65 |
| CN(C)[C@@H]1CCN(c2ncccn2)[C@H]1Cc1cccnc1 | -3.76 |
| CN(C)[C@@H]1CCN(c2ncc(F)cn2)[C@H]1Cc1ccncc1 | -5.64 |
| Cc1cccc(CO[C@@H]2CC[C@H]3[C@H]2OCCN3Cc2cc(C)on2)n1 | -0.405 |
| O=C1CC[C@H]2[C@H](CCN2c2ncc(F)cn2)N1c1cccnc1 | -6.96 |
| Cc1ccc(C(=O)N2C[C@H]3CCCC(OCc4cccnc4)[C@H]3C2)cn1 (stereo not given in full) | -1.36 |
| CO[C@@H]1CCN(Cc2cnn(C)c2)[C@@H]2CN(Cc3ccco3)C[C@@H]21 | -13.3 |
| c1ccc(CO[C@H]2CO[C@@]3(CCN(Cc4ccoc4)C3)C2)nc1 | -18.7 |
| COc1ccc(CN2CCn3cc(CN4CCCCC4)nc3C2)cc1 | 29.5 |
| Cc1ccc(CN2CCn3cc(CN(C)Cc4ccco4)nc3C2)o1 | 0.0869 |
| O=C1COC2(COCCN(Cc3cccnc3)C2)CN1c1ccoc1 (stereo not given) | -9.07 |
| COCCN1C[C@@H]2CN(Cc3ccsc3)CCC[C@]2(C(=O)O)C1 | -12.1 |
| CCN(CC)CCN1CCO[C@H]2[C@@H](OCc3ccncc3)CC[C@@H]21 | -1.93 |
| CCOC(=O)[C@]12CCCN(Cc3ccco3)C[C@H]1CN(CCN(C)C)C2 | -8.65 |
